According to paper PMC4581723, “Evaluation of In Vitro Activity of the Class I PI3K Inhibitor Buparlisib (BKM120) in Pediatric Bone and Soft Tissue Sarcomas” (PLoS ONE, 2015):
Where two headings read alike, the source gives them in different places.

Experiments:
TC-174 = assay: Cell viability assay (MTT), 72 h; assay type: cell-based; details: TC-174 (ES), PIK3CA WT, read-out: Buparlisib cell viability IC50
6647 = assay: Cell viability assay (MTT), 72 h; assay type: cell-based; details: 6647 (ES), PIK3CA WT, read-out: Buparlisib cell viability IC50
SKES = assay: Cell viability assay (MTT), 72 h; assay type: cell-based; details: SKES (ES), PIK3CA WT, read-out: Buparlisib cell viability IC50
TC-248 = assay: Cell viability assay (MTT), 72 h; assay type: cell-based; details: TC-248 (ES), PIK3CA WT, read-out: Buparlisib cell viability IC50
TTC-475 = assay: Cell viability assay (MTT), 72 h; assay type: cell-based; details: TTC-475 (ES), PIK3CA WT, read-out: Buparlisib cell viability IC50
KHOS = assay: Cell viability assay (MTT), 72 h; assay type: cell-based; details: KHOS (OS), PIK3CA WT, read-out: Buparlisib cell viability IC50
MNNG = assay: Cell viability assay (MTT), 72 h; assay type: cell-based; details: MNNG (OS), read-out: Buparlisib cell viability IC50
OS 187 = assay: Cell viability assay (MTT), 72 h; assay type: cell-based; details: OS 187 (OS), read-out: Buparlisib cell viability IC50
SJSA = assay: Cell viability assay (MTT), 72 h; assay type: cell-based; details: SJSA (OS), PIK3CA WT, read-out: Buparlisib cell viability IC50
phospho-Akt (S473) [1] = assay: Immunoblot (quantitative) of Akt phosphorylation; assay type: cell-based; details: for IC50: 1 h treatment
Description: (§1) Cells were incubated for approximately one hour on ice in lysis buffer (50 mM Tris pH 7.6, 0.5% NP-40, 10% glycerol, 30 mM NaCl, 1 mM EDTA) supplemented with Complete Mini EDTA-free protease inhibitor cocktail (Roche), 1 mM Na3VO4, and 1 mM NaF. […] Secondary antibodies conjugated to HRP were sheep anti-mouse IgG from GE Healthcare and goat anti-rabbit IgG from Santa Cruz Biotechnology. Secondary antibodies conjugated to infrared dyes were IRDye 800CW goat anti-mouse IgG and IRDye 680RD goat anti-rabbit IgG from LI-COR Biosciences. Fluorescent westerns were imaged using the Odyssey Infrared Imaging System (LI-COR Biosciences). Signals were quantified by measuring the integrated intensity values of each band using Odyssey software (LI-COR Biosciences).
(§2) We next evaluated the ability of buparlisib to inhibit cellular signaling downstream of PI3K. Increasing doses were added to cells and phosphorylation of signaling molecules was examined by immunoblot after one hour of treatment (Fig 2A). […] Phospho-Akt levels were normalized to levels of total Akt and fit to dose-response curves to calculate the half maximal inhibitory concentration (IC50) (Fig 2B).
(§3) Each data point represents the average of at least three independent experiments.

[2] = system: ES (TC-174, A4573), OS (KHOS, MNNG), and RMS (RD) colonies; assay: Soft agar assay (anchorage independent growth); assay type: cell-based; details: 14 days
Text: After 14 days of growth, colonies were stained with 0.005% crystal violet, imaged, and quantified using ImageJ. […] Increasing concentrations reduced both soft agar colony number and size (Fig 5A). Cell growth was inhibited within a narrower range than observed for anchorage dependent growth. […] (A) Plot of number and size of ES (TC-174, […]), OS (KHOS, MNNG), and RMS (RD) colonies formed in soft agar in the presence of DMSO or increasing concentrations of buparlisib. Columns represent the average of three replicates, error bars represent standard deviation. (B) Representative pictures of TC-174 soft agar colonies. (C) Immunoblot analysis of cleaved PARP in ES (TC-174, TC-32, […]), OS (KHOS), and RMS (RD, SJCRH30) treated with increasing doses of buparlisib for 24 hours. (D) Cell cycle analysis after 24 hours of buparlisib treatment of ES (TC-174, […]), OS (KHOS), and RMS (RD) cell lines. Data are the mean of two independent experiments.

cleaved PARP = assay: Immunoblot of PARP cleavage (apoptosis); assay type: cell-based
Text: The primary antibodies used for these studies were rabbit anti-PTEN, rabbit anti-phospho-Akt (Ser473), rabbit anti-phospho-Akt (Thr308), mouse anti-Akt (pan), rabbit anti-phospho-p44/42 MAPK (Erk1/2) (T202/[…] on Erk1, […]/[…] on Erk2), mouse anti-p44/42 MAPK (Erk1/2), mouse anti-phospho-p70 S6 Kinase (Thr389), rabbit anti-p70 S6 Kinase, rabbit anti-phospho-4E-BP1 (Thr37/46), rabbit anti-4E-BP1, rabbit anti-STAT3 (Y705), mouse anti-STAT3, and rabbit anti-cleaved PARP from Cell Signaling Technology; and mouse anti-β-actin from Sigma. Secondary antibodies conjugated to HRP were sheep anti-mouse IgG from GE Healthcare and goat anti-rabbit IgG from Santa Cruz Biotechnology. Secondary antibodies conjugated to infrared dyes were IRDye 800CW goat anti-mouse IgG and IRDye 680RD goat anti-rabbit IgG from LI-COR Biosciences. Fluorescent westerns were imaged using the Odyssey Infrared Imaging System (LI-COR Biosciences). Signals were quantified by measuring the integrated intensity values of each band using Odyssey software (LI-COR Biosciences). […] This occurs as a result of the ability of buparlisib to inhibit tubulin polymerization at higher concentrations.

phospho-4E-BP1 (T37/46) = assay: Immunoblot of signaling downstream of mTORC1; assay type: cell-based
Description: as §1, §2, §3

phospho-p70 S6K (T389) = assay: Immunoblot of signaling downstream of mTORC1; assay type: cell-based; details: increasing doses; one hour; compared with 4E-BP1
Description: as §1, §2, §3

phospho-Akt (S473) [3] = assay: Immunoblot (quantitative) of Akt phosphorylation; assay type: cell-based
PI3K = system: PI3K; parameters: method as in PMID 22188813; details: cited from earlier work

## Nc1cc(C(F)(F)F)c(-c2cc(N3CCOCC3)nc(N3CCOCC3)n2)cn1 [Buparlisib]
TC-174
  IC50: 1.04 µM
6647
  IC50: 1.01 µM
SKES
  IC50: 0.822 µM
TC-248
  IC50: 0.816 µM
TTC-475
  IC50: 1.02 µM
KHOS
  IC50: 1.57 µM
MNNG
  IC50: 1.6 µM
OS 187
  IC50: 1.54 µM
SJSA
  IC50: 1.45 µM
phospho-Akt (S473) [1]; 1 h, 6647 (ES), phospho-Akt S473 normalized to total Akt, read-out: Buparlisib Akt phosphorylation IC50
  IC50: 0.568 µM
phospho-Akt (S473) [1]; 1 h, HOS (OS), phospho-Akt S473 normalized to total Akt, read-out: Buparlisib Akt phosphorylation IC50
  IC50: 0.222 µM
phospho-Akt (S473) [1]; 1 h, KHOS (OS), phospho-Akt S473 normalized to total Akt, read-out: Buparlisib Akt phosphorylation IC50
  IC50: 0.109 µM
phospho-Akt (S473) [1]; 1 h, MNNG (OS), phospho-Akt S473 normalized to total Akt, read-out: Buparlisib Akt phosphorylation IC50
  IC50: 0.296 µM
phospho-Akt (S473) [1]; 1 h, RD (RMS), phospho-Akt S473 normalized to total Akt, read-out: Buparlisib Akt phosphorylation IC50
  IC50: 0.167 µM
phospho-Akt (S473) [1]; 1 h, SJCRH30 (RMS), phospho-Akt S473 normalized to total Akt, read-out: Buparlisib Akt phosphorylation IC50
  IC50: 0.2 µM
phospho-Akt (S473) [1]; 1 h, TC-174 (ES), phospho-Akt S473 normalized to total Akt, read-out: Buparlisib Akt phosphorylation IC50
  IC50: 0.313 µM
phospho-Akt (S473) [1]; 1 h, range over the cell lines tested, largest values in cell lines that lack PTEN expression, read-out: phospho-Akt (S473) IC50, range over cell lines
  IC50: 0.064 to 0.916 µM
phospho-Akt (S473) [1]; A4573, 1 h, A4573 (ES), phospho-Akt S473 normalized to total Akt, read-out: Buparlisib Akt phosphorylation IC50
  IC50: 0.916 µM
phospho-Akt (S473) [1]; Homo sapiens, A204, 1 h, A204 (RMS), phospho-Akt S473 normalized to total Akt, read-out: Buparlisib Akt phosphorylation IC50
  IC50: 0.0637 µM
phospho-Akt (S473) [1]; Homo sapiens, MCF7, 1 h, MCF-7 (breast), PIK3CA E545K, phospho-Akt S473 normalized to total Akt, read-out: Buparlisib Akt phosphorylation IC50
  IC50: 0.251 µM
phospho-Akt (S473) [1]; Homo sapiens, TC-32, 1 h, TC-32 (ES), phospho-Akt S473 normalized to total Akt, read-out: Buparlisib Akt phosphorylation IC50
  IC50: 0.28 µM
phospho-Akt (S473) [1]; KHOS-240S, 1 h, KHOS 240S (OS), phospho-Akt S473 normalized to total Akt, read-out: Buparlisib Akt phosphorylation IC50
  IC50: 0.198 µM
phospho-Akt (S473) [1]; buparlisib added to rapamycin, A4573 cells
  rapamycin-mediated Akt activation: reduced rapamycin-mediated Akt activation
phospho-Akt (S473) [1]; increasing doses, one hour of treatment, TC-32, KHOS, RD
  Phosphorylation of Akt at serine 473 and threonine 308: inhibited
[2]
  concentrations at which no soft agar colony formation occurred: greater than 2 μM
  concentrations with minimal effects on soft agar colony formation: less than 1 μM
Cleaved PARP; 24 hours of drug treatment, sarcoma cell lines
  concentrations resulting in increased PARP cleavage (apoptosis): greater than 1.0 μM
Cleaved PARP; ES cell lines, 24 h
  induction of apoptosis (PARP cleavage): potent induction of apoptosis
Cleaved PARP; OS and RMS cell lines, 24 h
  induction of apoptosis (PARP cleavage): modest
Cleaved PARP; combination with NVP-AEW541, A4573 cells, all dose levels, 24 hours
  apoptosis as measured by PARP cleavage: increased apoptosis
Cleaved PARP; combination with rapamycin, A4573 cells, 24 h
  apoptosis (PARP cleavage): did not increase apoptosis
Cleaved PARP; combined with trametinib, A673 cells, 24 h
  apoptosis as measured by PARP cleavage compared to buparlisib alone: no increase in apoptosis
phospho-4E-BP1 (T37/46); increasing doses, one hour
  Inhibition of phospho-4E-BP1: only observed at high buparlisib concentrations
phospho-4E-BP1 (T37/46); treatment with both buparlisib and rapamycin, A4573 cells
  phosphorylation of 4E-BP1: more potently suppressed
phospho-p70 S6K (T389)
  Phosphorylation of S6K: more potently inhibited
phospho-Akt (S473) [3]; combination with NVP-AEW541, A4573 cells, one hour of treatment
  phospho-Akt levels compared to each drug alone: reduced phospho-Akt levels
phospho-Akt (S473) [3]; time course 5 min to 24 h, 1 μM (3 μM in A4573)
  time to maximum inhibition of Akt: approximately one
PI3K
  specificity to PI3K versus other protein kinases: at least 50 fold
